The target of experiment [1] is human activated kallikrein enzyme (Homo sapiens, UniProt P03952). As to the kind of experiment: Plasma kallikrein inhibition, fluorogenic PFR-AMC substrate, 500 pM activated kallikrein format. The format is biochemical. Particulars: 500 pM activated kallikrein, 300 uM PFR-AMC, 30 min preincubation, 10 min reaction; read-out: Primary Dose Response Assay: Average EC50. The essentials:
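Fluorescence (ex 380/em 460 nm) is read after 10 min of 300 uM PFR-AMC turnover by 500 pM enzyme at RT. Compounds sit with enzyme for 30 min beforehand. Buffer is Tris (pH 7.5) with EDTA, NaCl, PEG-400 and Triton X-100; EC50 values are banded.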

Another experiment deals with T1, plasma kallikrein (Homo sapiens, UniProt P03952).
T1 construct: from tissue
T1 sequence (P03952 391-638 limits assumed): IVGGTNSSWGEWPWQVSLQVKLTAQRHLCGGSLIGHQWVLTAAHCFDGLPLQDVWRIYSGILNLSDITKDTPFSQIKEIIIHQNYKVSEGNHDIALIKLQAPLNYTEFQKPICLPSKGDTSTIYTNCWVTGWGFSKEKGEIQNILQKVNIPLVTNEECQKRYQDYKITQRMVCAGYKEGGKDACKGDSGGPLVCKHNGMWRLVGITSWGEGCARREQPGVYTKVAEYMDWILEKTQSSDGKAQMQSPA
T1 sequence (P03952 20-390 partner limits assumed): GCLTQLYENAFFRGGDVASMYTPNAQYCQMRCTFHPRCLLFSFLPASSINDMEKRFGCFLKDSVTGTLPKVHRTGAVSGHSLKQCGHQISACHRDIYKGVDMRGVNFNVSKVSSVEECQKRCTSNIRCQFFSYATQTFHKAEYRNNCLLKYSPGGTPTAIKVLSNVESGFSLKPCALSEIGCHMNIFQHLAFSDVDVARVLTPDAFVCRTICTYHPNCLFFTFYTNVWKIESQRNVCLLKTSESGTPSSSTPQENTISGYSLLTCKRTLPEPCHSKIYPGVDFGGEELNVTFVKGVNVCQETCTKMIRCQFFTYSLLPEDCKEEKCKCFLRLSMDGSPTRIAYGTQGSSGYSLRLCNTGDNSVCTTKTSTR
The experiment in a line: Neat human plasma assay, FXIIa contact pathway-activated, PFR-AMC substrate. Particulars: citrated human plasma 78% final, 10 nM human FXIIa, 100 μM PFR-AMC; read-out: Human Plasma Assay: IC90. The format is biochemical. As for the experimental part:
To analyze inhibition of plasma kallikrein in an ex vivo setting, the potency of compounds was measure in contact pathway-activated plasma assays. In a fluorogenic peptide substrate assay, test compounds dissolved in DMSO were added to sodium citrate collected human or rat plasma in a 96-well microplate. Alternatively, citrated plasma was collected from rats administered the compounds orally or by IV. 10 nM of human FXIIa (Enzyme Research Laboratories) diluted in pKal buffer (20 mM Tris-HCl, pH 7.5, 150 mM NaCl, 1 mM EDTA, 0.1% PEG-8000, and 0.1% Triton X-100) was added to the plasma, followed by the 100 μM of the profluorescent, synthetic plasma kallikrein substrate PFR-AMC (also diluted in pKal buffer). Final plasma concentration in the reaction was 78%. Fluorescence was immediately monitored by excitation/emission wavelengths of 360 nm/480 nm respectively over a period of 5 minutes in a microplate reader. The resulting linear increase in fluorescence emission (reflecting pKal proteolysis of PFR-AMC substrate) was fit to extract a proteolytic rate (fluorescent units over time), and this rate was subsequently plotted against compound inhibitor concentration. Resulting plots were fit to a standard 4-parameter IC50/IC90 equation to determine min/max values, IC50/90, and slope. All experimental steps were performed at room temperature. Table 50 provides results of the assay.

As a reminder, the EC50 is the concentration at which the effect is half-maximal. One may read the IC90 as the concentration needed for an effect of 90%.

human activated kallikrein enzyme, sequence (P03952 391-638 limits assumed): as the sequence (P03952 391-638 limits assumed) above
human activated kallikrein enzyme, sequence (P03952 20-390 partner limits assumed): as the sequence (P03952 20-390 partner limits assumed) above

Regarding `CN(C)C1CCN(c2cc(C3CC3)cn3cc(CNc4cc(NC(=O)[C@H]5C[C@@H]5c5cccc(Cl)c5)ncn4)nc23)C1` (mixture of isomers) [Example I-13, (1S,2S)-2-(3-chlorophenyl)-N-(6-(((6-cyclopropyl-8-(3-(dimethylamino)pyrrolidin-1-yl)imidazo[1,2-a]pyridin-2-yl)methyl)amino)pyrimidin-4-yl)cyclopropane-1-carboxamide], the EC50 in experiment [1] was 1 to 10 nM. The 90% effect concentration (IC90) at plasma kallikrein fell in the range of 1500 to 10000 nM. `Cc1ccnc([C@@H]2C[C@H]2C(=O)Nc2cc(OCc3cn4cc(C5CC5)cc(N5CC(=O)N(C)C5=O)c4n3)ncn2)n1` (racemic) [Example 28, rac-(1S*,2S*)—N-(6-((6-cyclopropyl-8-(3-methyl-2,4-dioxoimidazolidin-1-yl)imidazo[1,2-a]pyridin-2-yl)methoxy)pyrimidin-4-yl)-2-(4-methylpyrimidin-2-yl)cyclopropane-1-carboxamide]: the EC50 in experiment [1] is less than 1 nM. For the same compound, the IC90 at plasma kallikrein lay in the range of 400 to 1500 nM. The corresponding values for `Cc1ccnc([C@H]2C[C@@H]2C(=O)Nc2cc(OCc3cn4cc(C5CC5)cc(N5CC(=O)N(CCOCc6ccccc6)C5=O)c4n3)ncn2)n1` (racemic) [Example 31, rac-(1S*,2S*)—N-(6-((8-(3-(2-(benzyloxy)ethyl)-2,4-dioxoimidazolidin-1-yl)-6-cyclopropylimidazo[1,2-a]pyridin-2-yl)methoxy)pyrimidin-4-yl)-2-(4-methylpyrimidin-2-ylcyclopropane-1-carboxamide] are 1 to 10 nM and 10000 to 48000 nM. The corresponding values for `Cc1ccnc([C@H]2C[C@@H]2C(=O)Nc2cc(OCc3cn4cc(C5CC5)cc(N5CC(=O)N(CCO)C5=O)c4n3)ncn2)n1` (racemic) [Example 33, rac-(1S*,2S*)—N-(6-((6-cyclopropyl-8-(3-(2-hydroxyethyl)-2,4-dioxoimidazolidin-1-yl)imidazo[1,2-a]pyridin-2-yl)methoxy)pyrimidin-4-yl)-2-(4-methylpyrimidin-2-yl)cyclopropane-1-carboxamide] are less than 1 nM and 400 to 1500 nM. For the compound `O=C(Nc1cc(NCc2cn3cc(C4CC4)ccc3n2)ncn1)[C@H]1C[C@@H]1c1cc(Cl)ccc1Cl` (racemic) [Example 49, rac-(1S*,2S*)-N-(6-(((6-cyclopropylimidazo[1,2-a]pyridin-2-yl)methyl)amino)pyrimidin-4-yl)-2-(2,5-dichlorophenyl)cyclopropane-1-carboxamide], the EC50 in experiment [1] lay within 100 to 1000 nM. Moreover, the IC90 at plasma kallikrein is less than 400 nM.

As to `N#Cc1ccc(Cl)c(F)c1[C@H]1C[C@@H]1C(=O)Nc1cc(NCc2cn3cc(C4CC4)ccc3n2)ncn1` (racemic) [Example 50, rac-(1S*,2S*)-2-(3-chloro-6-cyano-2-fluorophenyl)-N-(6-(((6-cyclopropylimidazo[1,2-a]pyridin-2-yl)methyl)amino)pyrimidin-4-yl)cyclopropane-1-carboxamide], the EC50 in experiment [1] is 1 to 10 nM. The IC90 on plasma kallikrein is 10000 to 48000 nM. Regarding `CS(=O)(=O)c1cc(C2CC2)cn2cc(CNc3cc(NC(=O)[C@H]4C[C@@H]4c4cccc(Cl)c4)ncn3)nc12` (racemic) [Example 60, rac-(1S*,2S*)-2-(3-chlorophenyl)-N-(6-(((6-cyclopropyl-8-(methylsulfonyl)imidazo[1,2-α]pyridin-2-yl)methyl)amino)pyrimidin-4-yl)cyclopropane-1-carboxamide], in experiment [1], the EC50 is 1 to 10 nM. Moreover, the concentration for an effect of 90% (IC90) at plasma kallikrein is 10000 to 48000 nM. For `O=C(Nc1cc(NCc2cn3cc(C4CC4)cc(C4(O)COC4)c3n2)ncn1)[C@H]1C[C@@H]1c1cccc(Cl)c1` (racemic) [Example 63, rac-(1S*,2S*)-2-(3-chlorophenyl)-N-(6-(((6-cyclopropyl-8-(3-hydroxyoxetan-3-yl)imidazo[1,2-α]pyridin-2-yl)methyl)amino)pyrimidin-4-yl)cyclopropane-1-carboxamide], the 50% effective concentration (EC50) in experiment [1] fell in the range of 1 to 10 nM. In addition, the 90% effect concentration (IC90) on plasma kallikrein fell in the range of 1500 to 10000 nM. Turning to `O=C(Nc1cc(NCc2cn3cc(C4CC4)cc(C4(F)COC4)c3n2)ncn1)[C@H]1C[C@@H]1c1cccc(Cl)c1` (racemic) [Example 64, rac-(1S*,2S*)-2-(3-chlorophenyl)-N-(6-(((6-cyclopropyl-8-(3-fluorooxetan-3-yl)imidazo[1,2-α]pyridin-2-yl)methyl)amino)pyrimidin-4-yl)cyclopropane-1-carboxamide], the EC50 in experiment [1] lay within 1 to 10 nM. The 90% effect concentration (IC90) at plasma kallikrein is greater than 48000 nM. With `O=C(Nc1cc(NCc2cn3cc(C4CC4)cc(CO)c3n2)ncn1)[C@H]1C[C@@H]1c1cccc(Cl)c1` (racemic) [Example 70, rac-(1S*,2S*)-2-(3-chlorophenyl)-N-(6-(((6-cyclopropyl-8-(hydroxymethyl)imidazo[1,2-α]pyridin-2-yl)methyl)amino)pyrimidin-4-yl)cyclopropane-1-carboxamide], the EC50 in experiment [1] is 1 to 10 nM. Moreover, on plasma kallikrein, the 90% effect concentration (IC90) was greater than 48000 nM. Consider `Cc1ccnc([C@H]2C[C@@H]2C(=O)Nc2nncc(NCc3cn4cc(C5CC5)cc(N5CC(=O)N(C)C5=O)c4n3)n2)n1` [Example I-651, (1S,2S)—N-(5-(((6-cyclopropyl-8-(3-methyl-2,4-dioxoimidazolidin-1-yl)imidazo[1,2-a]pyridin-2-yl)methyl)amino)-1,2,4-triazin-3-yl)-2-(4-methylpyrimidin-2-yl)cyclopropane-1-carboxamide], for which the concentration giving a half-maximal response (EC50) in experiment [1] was less than 1 nM. In the case of `Cc1cc(NC(=O)[C@H]2C[C@@H]2c2nccc(C)n2)nc(OCc2cn3cc(C4CC4)cc(N4CC(=O)N(C)C4=O)c3n2)n1` [Example I-652, (1S,2S)—N-(2-((6-cyclopropyl-8-(3-methyl-2,4-dioxoimidazolidin-1-yl)imidazo[1,2-a]pyridin-2-yl)methoxy)-6-methylpyrimidin-4-yl)-2-(4-methylpyrimidin-2-yl)cyclopropane-1-carboxamide], in experiment [1], the concentration for a half-maximal effect (EC50) is less than 1 nM. Turning to `Cc1ccnc([C@H]2C[C@@H]2C(=O)Nc2cc(CCc3cn4cc(C5CC5)cc(N5CC(=O)N(C)C5=O)c4n3)ccn2)n1` [Example I-653, (1S,2S)—N-(4-(2-(6-cyclopropyl-8-(3-methyl-2,4-dioxoimidazolidin-1-yl)imidazo[1,2-a]pyridin-2-yl)ethyl)pyridin-2-yl)-2-(4-methylpyrimidin-2-yl)cyclopropane-1-carboxamide], the concentration for a half-maximal effect (EC50) in experiment [1] is less than 1 nM. The same measure, in the same setting: the figure for `CCOC(=O)c1cnc(NC(=O)[C@H]2C[C@@H]2c2nccc(C)n2)nc1OCc1cn2cc(C3CC3)cc(N3CC(=O)N(C)C3=O)c2n1` [Example I-654, ethyl 4-((6-cyclopropyl-8-(3-methyl-2,4-dioxoimidazolidin-1-yl)imidazo[1,2-a]pyridin-2-yl)methoxy)-2-((1S,2S)-2-(4-methylpyrimidin-2-yl)cyclopropane-1-carboxamido)pyrimidine-5-carboxylate] is less than 1 nM; for `Cc1ccnc([C@H]2C[C@@H]2C(=O)Nc2cc(C#N)cc(NCc3cn4cc(C5CC5)cc(N5CC(=O)N(C)C5=O)c4n3)c2)n1` [Example I-655, (1S,2S)—N-(3-cyano-5-(((6-cyclopropyl-8-(3-methyl-2,4-dioxoimidazolidin-1-yl)imidazo[1,2-a]pyridin-2-yl)methyl)amino)phenyl)-2-(4-methylpyrimidin-2-yl)cyclopropane-1-carboxamide] it is less than 1 nM.

Values taken from patent publication US20240228488A1 (TAKEDA PHARMACEUTICAL COMPANY LIMITED, priority 2021, published 2024).
